PubChem BioAssay (NCI)
Several values for one entry are separate records, joined by “and”; a condition that tells them apart may be missing. Equal values may be shown once.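 Five concentrations, 48 hours, 96-well plates. GI50: concentration for 50% inhibition of growth. At the TGI there is no net growth.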 Where a SMILES comes first, the peptide text is derived from it. [ ]: non-standard residue; d: D form. Phe(4-Cl) = N[CH](Cc1ccc(Cl)cc1)C(=O)O

Columns and labels:
Assay in all cases: growth of human tumour cells (NCI), 48 h
KM20L2 colon = tested on: KM20L2 colon
SK-OV-3 ovarian = tested on: SK-OV-3 ovarian
DMS 273 small cell lung = tested on: DMS 273 small cell lung
OVCAR-8 ovarian = tested on: OVCAR-8 ovarian
SF-539 CNS = tested on: SF-539 CNS
SN12C renal = tested on: SN12C renal
HOP-18 NSCLC = tested on: HOP-18 NSCLC
NCI-H522 lung = tested on: NCI-H522 lung
BT-549 breast = tested on: BT-549 breast
NCI/ADR-RES ovarian = tested on: NCI/ADR-RES ovarian

| Structure (SMILES) | TGI (KM20L2 colon) | TGI (SK-OV-3 ovarian) | TGI (DMS 273 small cell lung) | TGI (OVCAR-8 ovarian) | TGI (SF-539 CNS) | TGI (SN12C renal) | TGI (HOP-18 NSCLC) | TGI (NCI-H522 lung) | GI50 (KM20L2 colon) | GI50 (SK-OV-3 ovarian) | GI50 (DMS 273 small cell lung) | GI50 (OVCAR-8 ovarian) | GI50 (SF-539 CNS) | GI50 (SN12C renal) | GI50 (HOP-18 NSCLC) | GI50 (NCI-H522 lung) | TGI (BT-549 breast) | GI50 (BT-549 breast) | GI50 (NCI/ADR-RES ovarian) | TGI (NCI/ADR-RES ovarian) |
| --- | --- | --- | --- | --- | --- | --- | --- | --- | --- | --- | --- | --- | --- | --- | --- | --- | --- | --- | --- | --- |
| CC(O)C(NC(=O)C(Cc1ccccc1)NC(=O)C(NC(=O)C(CCCCN)NC(=O)C(Cc1c[nH]c2ccccc12)NC(=O)C(Cc1ccc(O)cc1)NC(=O)C(Cc1ccc(Cl)cc1)NC(=O)C(N)Cc1ccccc1)C(C)O)C(N)=O (stereo unspecified) (H-F[Phe(4-Cl)]YWKTFT-NH2; configuration not given here) | 48.7 µM | 46.4 µM | > 100 µM | 67.5 µM | 42.3 µM | > 100 µM | – | – | – | – | – | – | – | – | – | – | – | – | – | – |
| CC(C)(C)OC(=O)Cc1ccc2c(ccn2Cc2ccccc2)c1 | 77.2 µM | > 100 µM | > 100 µM | > 100 µM | > 100 µM | > 100 µM | > 100 µM | > 100 µM | – | – | – | – | – | – | – | – | – | – | – | – |
| Cc1ccccc1N(CCC#N)C1=NN(C(=O)CC(=O)Nc2ccccc2)C(c2ccccc2)C1 (stereo unspecified) | > 100 µM | > 100 µM | > 100 µM | > 100 µM | > 100 µM | > 100 µM | > 100 µM | > 100 µM | – | – | – | – | – | – | – | – | – | – | – | – |
| O=c1cccccc1NCCCNc1cccccc1=O | > 100 µM | > 100 µM | > 100 µM | > 100 µM | > 100 µM | 32.3 µM | – | > 100 µM | – | – | – | – | – | – | – | – | – | – | – | – |
| CN(C)CC/C(=N\Nc1c(Cl)cccc1Cl)c1ccccc1 | 33.1 µM | 52 µM | 31.8 µM | 37.6 µM | 34.2 µM | 92.7 µM | 51.1 µM | 33.9 µM | – | – | – | – | – | – | – | – | – | – | – | – |
| CC(=O)OC[C@]12CC[C@H]3[C@@H](C[C@H]4O[C@]45[C@@H](O)C=CC(=O)[C@]35C)[C@@H]1CC[C@@H]2[C@H](C)[C@H]1CC(C)=C(C)C(=O)O1 | 0.829 µM and 1.44 µM | 5.98 µM | 1.51 µM | 0.899 µM | 0.73 µM and 0.452 µM | 0.943 µM and 1.16 µM | 2.42 µM | 0.561 µM and 0.406 µM | 0.512 µM and 0.407 µM | 2.78 µM | 0.605 µM and 0.42 µM | 0.331 µM and 0.285 µM | 0.303 µM and 0.2 µM | 0.401 µM and 0.322 µM | 1.05 µM | 0.259 µM and 0.166 µM | – | – | – | – |
| COc1cc(OC(=O)c2c(O)cc(O)c(O)c2C)cc(C)c1C(=O)Oc1cc(C)c(C(=O)O)c(O)c1 | > 100 µM | > 100 µM | > 100 µM | > 100 µM | > 100 µM | > 100 µM | > 100 µM | > 100 µM | – | – | – | – | – | – | – | – | – | – | – | – |
| COC(=O)C1=NC(=S)NC(c2ccccc2)C1c1nc2ccccc2s1 (stereo unspecified) | > 100 µM | > 100 µM | > 100 µM | > 100 µM | > 100 µM | > 100 µM | > 100 µM | – | – | – | – | – | – | – | – | – | – | – | – | – |
| CC(=O)[CH-]C(=O)c1ccccc1.CC(=O)[CH-]C(=O)c1ccccc1.O=C([O-])c1ccc([O-])cc1.O=C([O-])c1ccc([O-])cc1.[Ti+4] | > 100 µM | > 100 µM | – | > 100 µM | > 100 µM | > 100 µM | > 100 µM | 70.9 µM | 51.1 µM | > 100 µM | – | 46.5 µM | 40.2 µM | 51.3 µM | 68.8 µM | 22.8 µM | – | – | – | – |
| COc1ccc2c(c1)C=C([N+](=O)[O-])C(C1OC(C)(C)OC1C1COC(C)(C)O1)O2 (stereo unspecified) | 17.3 µM | 24.2 µM | 9.22 µM | 11.4 µM | 19.3 µM | 19.7 µM | 42 µM | 2.29 µM | – | – | – | – | – | – | – | – | 12.6 µM | – | – | – |
| O=C(O)CP(=S)(S)c1ccccc1 (stereo unspecified) | – | > 100 µM | > 100 µM | > 100 µM | > 100 µM | > 100 µM | – | > 100 µM | – | – | – | – | – | – | – | – | – | – | – | – |
| CN(C)P(=O)(/C(N)=N/Nc1ccc([N+](=O)[O-])cc1)N(C)C | > 100 µM | – | > 100 µM | > 100 µM | > 100 µM | > 100 µM | – | > 100 µM | – | – | – | – | – | – | – | – | – | – | – | – |
| Cc1ccc(Nc2nc3c(s2)C(=O)c2ccccc2C3=O)c(C)c1 | > 100 µM | 62.5 µM | 43.7 µM | 35.2 µM | 31.4 µM | 31.1 µM | 20.1 µM | 4.66 µM | – | – | – | – | – | – | – | – | – | – | – | – |
| CCOC(=O)NC(=O)c1cn(CCOCCOC(=O)NCCCCCCNC(=O)OCCOCCn2cc(C(=O)NC(=O)OCC)c(=O)[nH]c2=O)c(=O)[nH]c1=O | > 100 µM | > 100 µM | > 100 µM | > 100 µM | > 100 µM | > 100 µM | > 100 µM | > 100 µM | – | – | – | – | – | – | – | – | – | – | – | – |
| CC1=C2C(=O)O[C@@H](c3ccoc3)[C@]2(C)CCC1 | > 100 µM | > 100 µM | – | > 100 µM | > 100 µM | – | > 100 µM | > 100 µM | – | – | – | – | – | – | – | – | – | – | – | – |
| CCC1(O)C(=O)OCc2c1cc1n(c2=O)Cc2cc3ccc(C=O)cc3nc2-1 (stereo unspecified) | > 50.3 µM | 50 µM and 52.1 µM | 3.89 µM | 8.02 µM and 24.2 µM | – | 50 µM and 7.53 µM | > 100 µM | 15.4 µM and 13.8 µM | – | 7.45 µM | – | 0.539 µM | 1.69 µM | 1.39 µM | – | 6.8 µM and 2.9 µM | 29.8 µM and 59.6 µM | 4.56 µM | 1.33 µM | 6.73 µM and 12.6 µM |
| Cc1cccc(NC(=O)C(=O)Cc2nc3ccccc3[nH]c2=O)c1C | > 100 µM | > 100 µM | – | > 100 µM | > 100 µM | > 100 µM | > 100 µM | > 100 µM | – | – | – | – | – | – | – | – | – | – | – | – |
| Cc1ccc(N(C(=O)CC(=O)NN)C(=O)c2ccccc2Cl)cc1 | > 100 µM | > 100 µM | > 100 µM | > 100 µM | > 100 µM | > 100 µM | > 100 µM | > 100 µM | – | – | – | – | – | – | – | – | – | – | – | – |
| CCC[CH2][Sn]1([CH2]CCC)[O]C(=O)C(C(C)C)N=Cc2ccccc2[O]1 (stereo unspecified) | 2.22 µM | 1.63 µM | 2.04 µM | > 100 µM | > 100 µM | 0.987 µM | 1.92 µM | 0.168 µM | 1.04 µM | 0.52 µM | 0.73 µM | > 100 µM | 0.878 µM | 0.288 µM | 0.668 µM | 0.0442 µM | – | – | – | – |
| N.N.N.N.N.O=C([O-])c1nn[n-]n1.[Cl-].[Co+3] | > 100 µM | > 100 µM | > 100 µM | > 100 µM | > 100 µM | > 100 µM | > 100 µM | – | > 100 µM | > 100 µM | > 100 µM | > 100 µM | > 100 µM | > 100 µM | > 100 µM | – | – | – | – | – |
